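Five compound concentrations were applied to cells in 96-well plates for 48 hours; endpoints were derived by simple linear interpolation of the resulting dose-response curve. Abbreviation: GI50, concentration required for 50% inhibition of growth.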 Active and inactive are the calls of the source. Rule as the data show it: active = GI50 up to about 1.1 µM and inactive = higher.
Tests used:
Experiment in all cases: inhibition of tumour cell growth, NCI panel, 48 h
[1] = tested on: U-251
[2] = tested on: SF-268
[3] = tested on: TK-10
[4] = tested on: M14
[5] = tested on: HL-60
[6] = tested on: A549
[7] = tested on: SF-539
[8] = tested on: SN12C
[9] = tested on: NCI-H460
[10] = tested on: KM12
[11] = tested on: CCRF-CEM
[12] = tested on: XF498
[13] = tested on: NCI-H23
[14] = tested on: OVCAR-8
[15] = tested on: UACC-257
[16] = tested on: IGROV-1
[17] = tested on: RPMI-8226
[18] = tested on: SK-OV-3
[19] = tested on: HOP-62
[20] = tested on: A498
[21] = tested on: SK-MEL-28
[22] = tested on: KM-20L2
[23] = tested on: LOX IMVI
[24] = tested on: NCI-H226
[25] = tested on: DLD-1
[26] = tested on: SNB-19
[27] = tested on: MOLT-4
[28] = tested on: DMS-273
[29] = tested on: SF-295
[30] = tested on: OVCAR-4
[31] = tested on: UACC-62
[32] = tested on: SW-620
[33] = tested on: OVCAR-5
[34] = tested on: SK-MEL-2
[35] = tested on: HCT-15
[36] = tested on: Malme-3M
[37] = tested on: SR
[38] = tested on: HCT-116
[39] = tested on: NCI-H522
[40] = tested on: OVCAR-3
[41] = tested on: HOP-18
[42] = tested on: DMS-114
[43] = tested on: HT-29
[44] = tested on: EKVX
[45] = tested on: K562
[46] = tested on: ACHN
[47] = tested on: SK-MEL-5
[48] = tested on: CAKI-1
[49] = tested on: SNB-75
[50] = tested on: 786-0
[51] = tested on: UO-31
[52] = tested on: HCC 2998
[53] = tested on: LXFL 529
[54] = tested on: COLO 205
[55] = tested on: SNB-78
[56] = tested on: NCI/ADR-RES
[57] = tested on: RXF 393
[58] = tested on: MCF7
[59] = tested on: HOP-92
[60] = tested on: RXF 631
[61] = tested on: M19-MEL

`C/C(CN1C(=O)c2ccccc2C1=O)=N\NS(=O)(=O)c1ccc(F)cc1` was tested, and the GI50 [1] was > 100 µM (inactive), the GI50 [2] was > 100 µM (inactive) and the GI50 [3] was > 100 µM (inactive). For the same molecule, the GI50 [4] was > 100 µM (inactive), the GI50 [5] was > 100 µM (inactive) and the GI50 [6] was > 100 µM (inactive). The GI50 [7] was > 100 µM (inactive), the GI50 [8] was > 100 µM (inactive) and the GI50 [9] was > 100 µM (inactive). The GI50 [10] was > 100 µM (inactive), the GI50 [11] was > 100 µM (inactive) and the GI50 [12] was > 100 µM (inactive). For the same molecule, the GI50 [13] was > 100 µM (inactive), the GI50 [14] was > 100 µM (inactive) and the GI50 [15] was > 100 µM (inactive). The GI50 [16] was > 100 µM (inactive), the GI50 [17] was > 100 µM (inactive) and the GI50 [18] was > 100 µM (inactive). The GI50 [19] was > 100 µM (inactive), the GI50 [20] was > 100 µM (inactive) and the GI50 [21] was > 100 µM (inactive). For the same molecule, the GI50 [22] was > 100 µM (inactive), the GI50 [23] was > 100 µM (inactive) and the GI50 [24] was > 100 µM (inactive). For the same molecule, the GI50 [25] was > 100 µM (inactive), the GI50 [26] was > 100 µM (inactive) and the GI50 [27] was > 100 µM (inactive). The GI50 [28] was > 100 µM (inactive), the GI50 [29] was > 100 µM (inactive) and the GI50 [30] was > 100 µM (inactive). The GI50 [31] was > 100 µM (inactive), the GI50 [32] was > 100 µM (inactive) and the GI50 [33] was > 100 µM (inactive). The GI50 [34] was > 100 µM (inactive), the GI50 [35] was greater than 100 µM and the GI50 [36] was > 100 µM (inactive). For the same molecule, the GI50 [37] was > 100 µM (inactive), the GI50 [38] was > 100 µM (inactive) and the GI50 [39] was > 100 µM (inactive). The GI50 [40] was > 100 µM (inactive), the GI50 [41] was > 100 µM (inactive) and the GI50 [42] was > 100 µM (inactive). The GI50 [43] was > 100 µM (inactive), the GI50 [44] was > 100 µM (inactive) and the GI50 [45] was > 100 µM (inactive). The GI50 [46] was > 100 µM (inactive), the GI50 [47] was > 100 µM (inactive) and the GI50 [48] was > 100 µM (inactive). For the same molecule, the GI50 [49] was > 100 µM (inactive), the GI50 [50] was > 100 µM (inactive) and the GI50 [51] was > 100 µM (inactive). The GI50 [52] was > 100 µM (inactive), the GI50 [53] was > 100 µM (inactive) and the GI50 [54] was > 100 µM (inactive). The GI50 [55] was > 100 µM (inactive).
In the case of `C=CCCCCn1c2ccccc2c2c(C)c3cnccc3c(C)c21`, the GI50 [1] is reported as 12.5 µM (inactive), the GI50 [2] is reported as 11.3 µM (inactive) and the GI50 [5] is reported as 2.07 µM (inactive). The GI50 [6] was 8.99 µM (inactive), the GI50 [7] was 12.5 µM (inactive) and the GI50 [8] was 8.67 µM (inactive). The GI50 [9] was 6.64 µM (inactive), the GI50 [10] was 8.47 µM (inactive) and the GI50 [11] was 4.04 µM (inactive). The GI50 [12] was 1.95 µM (inactive), the GI50 [13] was 4.63 µM (inactive) and the GI50 [14] was 3.93 µM (inactive). For the same molecule, the GI50 [15] was 4.5 µM (inactive), the GI50 [16] was 11.7 µM (inactive) and the GI50 [17] was 2.81 µM (inactive). For the same molecule, the GI50 [18] was 16.5 µM (inactive), the GI50 [19] was 16.2 µM (inactive) and the GI50 [20] was 5.86 µM (inactive). The GI50 [21] was 9.82 µM (inactive), the GI50 [22] was 6.38 µM (inactive) and the GI50 [23] was 7.55 µM (inactive). For the same molecule, the GI50 [56] was 5.07 µM (inactive), the GI50 [24] was 10.9 µM (inactive) and the GI50 [25] was 7.11 µM (inactive). For the same molecule, the GI50 [26] was 15.3 µM (inactive), the GI50 [27] was 2.83 µM (inactive) and the GI50 [28] was 5.14 µM (inactive). The GI50 [29] was 8.71 µM (inactive), the GI50 [30] was 6.5 µM (inactive) and the GI50 [31] was 11.2 µM (inactive). The GI50 [32] was 4.54 µM (inactive), the GI50 [33] was 16.9 µM (inactive) and the GI50 [34] was 13.4 µM (inactive). The GI50 [57] was 6.25 µM (inactive), the GI50 [35] was 6.27 µM and the GI50 [36] was 9.02 µM (inactive). The GI50 [38] was 4.63 µM (inactive), the GI50 [39] was 3.97 µM (inactive) and the GI50 [40] was 4.99 µM (inactive). The GI50 [41] was 16.1 µM (inactive), the GI50 [42] was 3.94 µM (inactive) and the GI50 [43] was 7 µM (inactive). For the same molecule, the GI50 [44] was 12.9 µM (inactive), the GI50 [45] was 3.32 µM (inactive) and the GI50 [47] was 5.08 µM (inactive). The GI50 [48] was 8.69 µM (inactive), the GI50 [49] was 3.88 µM (inactive) and the GI50 [51] was 5.75 µM (inactive). The GI50 [58] was 7.73 µM (inactive), the GI50 [52] was 10.1 µM (inactive) and the GI50 [54] was 3.96 µM (inactive). For the same molecule, the GI50 [59] was 4.06 µM (inactive) and the GI50 [55] was 12.1 µM (inactive).
With `CNS(=O)(=O)NNS(=O)(=O)c1ccc(Cl)cc1` the GI50 [2] was > 100 µM (inactive), the GI50 [3] was > 100 µM (inactive) and the GI50 [4] was > 100 µM (inactive). For the same molecule, the GI50 [5] was > 100 µM (inactive), the GI50 [6] was > 100 µM (inactive) and the GI50 [7] was > 100 µM (inactive). The GI50 [8] was > 100 µM (inactive), the GI50 [9] was > 100 µM (inactive) and the GI50 [10] was > 100 µM (inactive). For the same molecule, the GI50 [11] was > 100 µM (inactive), the GI50 [13] was > 100 µM (inactive) and the GI50 [14] was > 100 µM (inactive). For the same molecule, the GI50 [60] was > 100 µM (inactive), the GI50 [15] was > 100 µM (inactive) and the GI50 [16] was > 100 µM (inactive). For the same molecule, the GI50 [17] was > 100 µM (inactive), the GI50 [18] was > 100 µM (inactive) and the GI50 [19] was > 100 µM (inactive). The GI50 [20] was > 100 µM (inactive), the GI50 [21] was > 100 µM (inactive) and the GI50 [22] was > 100 µM (inactive). For the same molecule, the GI50 [25] was > 100 µM (inactive), the GI50 [26] was > 100 µM (inactive) and the GI50 [27] was > 100 µM (inactive). The GI50 [61] was > 100 µM (inactive), the GI50 [29] was > 100 µM (inactive) and the GI50 [30] was > 100 µM (inactive). The GI50 [31] was > 100 µM (inactive), the GI50 [32] was > 100 µM (inactive) and the GI50 [33] was > 100 µM (inactive). The GI50 [34] was > 100 µM (inactive), the GI50 [57] was > 100 µM (inactive) and the GI50 [36] was > 100 µM (inactive). The GI50 [37] was > 100 µM (inactive), the GI50 [38] was > 100 µM (inactive) and the GI50 [39] was > 100 µM (inactive). The GI50 [40] was > 100 µM (inactive), the GI50 [42] was > 100 µM (inactive) and the GI50 [43] was > 100 µM (inactive). The GI50 [44] was > 100 µM (inactive), the GI50 [45] was > 100 µM (inactive) and the GI50 [46] was > 100 µM (inactive). For the same molecule, the GI50 [47] was > 100 µM (inactive), the GI50 [48] was > 100 µM (inactive) and the GI50 [50] was > 100 µM (inactive). For the same molecule, the GI50 [51] was 48.2 µM (inactive), the GI50 [52] was > 100 µM (inactive) and the GI50 [54] was > 100 µM (inactive). The GI50 [59] was > 100 µM (inactive).
